Measured values from patent US9914760B2, “Methods of identifying, isolating and using odorant and aroma receptors” (Firmenich SA, priority 2013, dated 2018).

Biological target: Olfr743 (Mus musculus, UniProt L7N1Y2)
Test: cell-based cAMP assay (HTRF), HEK293T co-transfected with Gαolf
Conditions: 300 μM 2-acetonaphthone
Source text: The activity of candidate mouse receptors Olfr740 (SEQ ID NO: 1 and SEQ ID NO: 2), Olfr743 (SEQ ID NO: 5 and SEQ ID NO: 6), and Olfr746 (SEQ ID NO: 37 and SEQ ID NO: 38) to both indole and skatole malodors were confirmed in cell-based cAMP assays. In FIGS. 5A and 5B, FLAG Rho-tagged (SEQ ID 18) Olfr743 (SEQ ID NO: 6) and Olfr740 (SEQ ID NO: 2) cDNA sequences were co-transfected with Gαolf (SEQ ID NO: 21) and exposed to increasing concentrations of indole (left) or skatole (right). FIGS. 5C and 5D are repeat experiments showing similar activity of Olfr740 (SEQ ID NO: 2) with Olfr743 (SEQ ID NO: 6) with indole and skatole. In FIG. 5E, the FLAG Rho-tagged (SEQ ID 18) Olfr746 (SEQ ID NO: 38) cDNA sequence was co-transfected with Gαolf (SEQ ID NO: 21) and exposed to increasing concentrations of indole or skatole. Odorant-induced activity was detected by measuring cAMP levels in the cytosol using the HTRF approach (CisBio kit). […] Co-transfection of HEK cells with Gαolf (SEQ ID NO: 21) alone (no receptor) were used as controls for non-specific activity (control). Activity is defined as the baseline corrected HTRF ratios normalized to the highest signal in the experiment. […] All three receptors show specific dose dependent activity to the malodor compounds and, as such, validate the process for identifying receptors for these compounds. Mouse receptors Olfr740 (SEQ ID NO: 1 and SEQ ID NO: 2) and Olfr743 (SEQ ID NO: 5 and SEQ ID NO: 6) were identified from isolated olfactory neurons that responded to both indole and skatole. Mouse receptor Olfr746 (SEQ ID NO: 37 and SEQ ID NO: 38) was identified in silico by database mining using Olfr740 (SEQ ID NO: 2) and Olfr743 (SEQ ID NO: 6) as query sequences. The receptors are modified at their N-terminus with the FLAG tag and the first 20 amino acids of the bovine rhodopsin receptor (SEQ ID 18), transiently expressed in HEK 293T cells, and stimulated separately with indole and skatole to confirm their identity as bona fide indole/skatole receptors. Co-expression of the human G alpha subunit Gαolf (SEQ ID NO: 21) activates the Gs transduction pathway that leads to an internal cAMP increase upon binding to the appropriate ligand.
Once identified using the procedure outlined herein, the resulting malodor receptor cell lines can be used to screen chemical libraries for compounds that modulate their activity and possibly human perception. This experiment was performed under the same conditions as in Example 4. Cells transfected with Rho-tagged (SEQ ID NO: 18) Olfr743 (SEQ ID NO: 6) were exposed to increasing concentrations of indole in the presence or absence of 300 μM 2-actetonaphthone. […] In the presence of the antagonist compound, a rightward shift of in the dose-response curve is observed resulting in a 4 fold increase in the EC50 to indole. Activity is defined as the baseline corrected HTRF ratios normalized to the highest signal in the experiment.

Sequence of Olfr743 (P38405 2-381): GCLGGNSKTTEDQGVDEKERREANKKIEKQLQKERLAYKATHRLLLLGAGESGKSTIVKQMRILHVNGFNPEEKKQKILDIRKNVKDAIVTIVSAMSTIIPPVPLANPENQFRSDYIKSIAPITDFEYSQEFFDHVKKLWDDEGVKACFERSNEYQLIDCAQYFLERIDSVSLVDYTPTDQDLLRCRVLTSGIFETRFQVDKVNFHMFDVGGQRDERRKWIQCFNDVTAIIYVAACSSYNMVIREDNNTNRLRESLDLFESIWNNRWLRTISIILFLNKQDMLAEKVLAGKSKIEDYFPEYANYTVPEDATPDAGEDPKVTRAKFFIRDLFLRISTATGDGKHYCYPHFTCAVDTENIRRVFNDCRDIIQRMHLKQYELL
Sequence of Olfr743 (L7N1Y2 entry or part of it): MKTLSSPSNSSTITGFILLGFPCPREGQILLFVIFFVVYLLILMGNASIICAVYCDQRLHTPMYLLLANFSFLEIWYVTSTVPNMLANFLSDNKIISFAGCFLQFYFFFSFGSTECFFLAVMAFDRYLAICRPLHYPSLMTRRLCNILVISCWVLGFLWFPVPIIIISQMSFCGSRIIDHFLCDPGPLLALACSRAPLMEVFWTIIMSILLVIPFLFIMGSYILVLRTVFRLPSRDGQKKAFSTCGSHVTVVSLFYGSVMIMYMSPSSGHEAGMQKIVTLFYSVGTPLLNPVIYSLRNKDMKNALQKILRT

CC(=O)c1ccc2ccccc2c1 [2-acetonaphthone]
inhibition of Olfr743 activity to indole: inhibits the activity | increase in the EC50 to indole (rightward shift of dose-response curve): 4 fold
